Measured values as given in ChEMBL document CHEMBL4145465, “Design, synthesis and biological evaluation of novel ring-opened cromakalim analogues with relaxant effects on vascular and respiratory smooth muscles and as stimulators of elastin synthesis” (Eur J Med Chem, 2018).

Key:
[1] = tested on: Thoracic aorta; experiment: Vasorelaxing activity in Wistar rat endothelium-intact thoracic aorta ring assessed as reduction in 30 mM KCl-induced contraction after 15 mins; conditions: 0.25 h
[2] = tested on: Thoracic aorta; experiment: Vasorelaxing activity in Wistar rat endothelium-intact thoracic aorta ring assessed as reduction in 30 mM KCl-induced contraction at 300 uM after 15 mins relative to DMSO; conditions: 0.25 h

Structure (SMILES)	EC50 [1] [µM]	Emax [2] [%]
COc1ccc(OC)c(CNC(=O)NS(=O)(=O)c2ccccc2)c1	> 300	-20.3
Cc1ccc(OCc2ccccc2)c(C(C)NC(=O)N(C)S(=O)(=O)c2ccccc2)c1 (stereo not given)	68.2	86.1
CCOc1ccc(Cl)cc1C(C)NC(=O)NS(=O)(=O)c1ccccc1 (stereo not given)	> 300	15.8
COc1ccc(OC)c(CNC(=O)NS(=O)(=O)c2ccc(C)cc2)c1	> 300	-14.5
COc1ccc(OC)c(CNC(=O)NS(=O)(=O)c2ccc(Cl)cc2)c1	> 300	-28
Cc1ccc(S(=O)(=O)NC(=O)NC(C)c2cc(Br)ccc2OC(C)C)cc1 (stereo not given)	61.8	93.2
CC(NC(=O)N(C)S(=O)(=O)c1ccc(Cl)cc1)c1cc(Br)ccc1OCc1ccccc1 (stereo not given)	146	97.3
COc1ccc(Cl)cc1C(C)NC(=O)NS(=O)(=O)c1ccc(C)cc1 (racemic)	> 300	36.6
COc1ccc(Br)cc1C(C)NC(=O)NS(=O)(=O)c1ccc(Cl)cc1 (racemic)	80.9	82.6
CC(NC(=O)NS(=O)(=O)c1ccccc1)c1cc(Br)ccc1OCc1ccccc1 (racemic)	130	92.3
CCOc1ccc(Cl)cc1C(C)NC(=O)NS(=O)(=O)c1ccc(C)cc1 (racemic)	> 300	45.5
CCOc1ccc(Br)cc1C(C)NC(=O)NS(=O)(=O)c1ccc(C)cc1 (racemic)	> 300	62.2
CCOc1ccc(F)cc1C(C)NC(=O)NS(=O)(=O)c1ccc(C)cc1 (racemic)	> 300	26.2
Cc1ccc(S(=O)(=O)NC(=O)NC(C)c2ccccc2OCc2ccccc2)cc1 (racemic)	> 200	84.7
COc1ccc(Br)cc1C(C)NC(=O)NS(=O)(=O)c1ccccc1 (racemic)	> 300	45.5
COc1ccc(F)cc1C(C)NC(=O)NS(=O)(=O)c1ccc(Cl)cc1 (racemic)	> 300	54.7
CC(C)Oc1ccc(Br)cc1C(C)NC(=O)NS(=O)(=O)c1ccccc1 (racemic)	143	73.2
Cc1ccc(S(=O)(=O)N(C)C(=O)NC(C)c2cc(Br)ccc2OCc2ccccc2)cc1 (racemic)	67.1	47.9

Structure (SMILES)	EC50 [1] [µM]	Emax [2] [%]
Cc1ccc(OCc2ccccc2)c(C(C)NC(=O)NS(=O)(=O)c2ccccc2)c1 (racemic)	> 200	90.7
CCOc1ccc(Cl)cc1C(C)NC(=O)NS(=O)(=O)c1ccc(Cl)cc1 (racemic)	281	69.7
CC(NC(=O)NS(=O)(=O)c1ccccc1)c1ccccc1OCc1ccccc1 (racemic)	> 200	59
CC(C)Oc1ccc(Br)cc1C(C)NC(=O)NS(=O)(=O)c1ccc(Cl)cc1 (racemic)	122	100
COc1ccc(Cl)cc1C(C)NC(=O)NS(=O)(=O)c1ccc(Cl)cc1 (racemic)	> 300	40.9
CC(NC(=O)NS(=O)(=O)c1ccc(Cl)cc1)c1ccccc1OCc1ccccc1 (racemic)	157	103
COc1ccc(Br)cc1C(C)NC(=O)NS(=O)(=O)c1ccc(C)cc1 (racemic)	> 300	67.6
Cc1ccc(S(=O)(=O)NC(=O)NC(C)c2cc(Br)ccc2OCc2ccccc2)cc1 (racemic)	138	92.5
CCOc1ccc(Br)cc1C(C)NC(=O)NS(=O)(=O)c1ccc(Cl)cc1 (racemic)	171	77.6
CCOc1ccc(F)cc1C(C)NC(=O)NS(=O)(=O)c1ccccc1 (racemic)	> 300	46.4
CCOc1ccc(Br)cc1C(C)NC(=O)NS(=O)(=O)c1ccccc1 (racemic)	> 300	35.9
CC(NC(=O)N(C)S(=O)(=O)c1ccccc1)c1cc(Br)ccc1OCc1ccccc1 (racemic)	60.3	56.8
Cc1ccc(S(=O)(=O)NC(=O)NC(C)c2cc(C)ccc2OCc2ccccc2)cc1 (racemic)	91.9	106
CCOc1ccc(F)cc1C(C)NC(=O)NS(=O)(=O)c1ccc(Cl)cc1 (racemic)	> 300	52.7
COc1ccc(Cl)cc1C(C)NC(=O)NS(=O)(=O)c1ccccc1 (racemic)	> 300	16.4
COc1ccc(F)cc1C(C)NC(=O)NS(=O)(=O)c1ccc(C)cc1 (racemic)	> 300	-4.5
COc1ccc(F)cc1C(C)NC(=O)NS(=O)(=O)c1ccccc1 (racemic)	> 300	1.2

These reach a lower EC50 [1]. Values come first.

EC50 [1] [µM]	Structure (SMILES)	Emax [2] [%]
55.7	CCOc1ccc(Br)cc1C(C)NC(=O)N(C)S(=O)(=O)c1ccc(Cl)cc1 (racemic)	71
43.2	CC(C)Oc1ccc(Br)cc1C(C)NC(=O)N(C)S(=O)(=O)c1ccc(Cl)cc1 (racemic)	93.7
38.4	CC(NC(=O)N(C)S(=O)(=O)c1ccc(Cl)cc1)c1ccccc1OCc1ccccc1 (racemic)	91.1
34.7	Cc1ccc(S(=O)(=O)N(C)C(=O)NC(C)c2cc(Br)ccc2OC(C)C)cc1 (racemic)	102
32.1	CC(C)Oc1ccc(Br)cc1C(C)NC(=O)N(C)S(=O)(=O)c1ccccc1 (racemic)	81.5
31	Cc1ccc(S(=O)(=O)N(C)C(=O)NC(C)c2ccccc2OCc2ccccc2)cc1 (racemic)	93.2
28.6	CCOc1ccc(Br)cc1C(C)NC(=O)N(C)S(=O)(=O)c1ccc(C)cc1 (racemic)	90.8
24.5	CCOc1ccc(F)cc1C(C)NC(=O)N(C)S(=O)(=O)c1ccc(Cl)cc1 (racemic)	101
21.7	CC(NC(=O)N(C)S(=O)(=O)c1ccccc1)c1ccccc1OCc1ccccc1 (racemic)	92.3
20.9	COc1ccc(OC)c(CNC(=O)N(C)S(=O)(=O)c2ccc(C)cc2)c1	92.7
20	COc1ccc(Cl)cc1C(C)NC(=O)N(C)S(=O)(=O)c1ccc(Cl)cc1 (racemic)	103
18.2	COc1ccc(OC)c(CNC(=O)N(C)S(=O)(=O)c2ccc(Cl)cc2)c1	93.6
14.6	CCOc1ccc(Cl)cc1C(C)NC(=O)N(C)S(=O)(=O)c1ccc(Cl)cc1 (racemic)	105
13.8	COc1ccc(Cl)cc1C(C)NC(=O)N(C)S(=O)(=O)c1ccc(C)cc1 (racemic)	107
12.6	COc1ccc(F)cc1C(C)NC(=O)N(C)S(=O)(=O)c1ccc(Cl)cc1 (racemic)	101
12.2	CCOc1ccc(Cl)cc1C(C)NC(=O)N(C)S(=O)(=O)c1ccc(C)cc1 (racemic)	106
11.7	COc1ccc(F)cc1C(C)NC(=O)N(C)S(=O)(=O)c1ccc(C)cc1 (racemic)	106
11.5	CCOc1ccc(F)cc1C(C)NC(=O)N(C)S(=O)(=O)c1ccccc1 (racemic)	106
10	COc1ccc(F)cc1C(C)NC(=O)N(C)S(=O)(=O)c1ccccc1 (racemic)	109
7.8	CCOc1ccc(F)cc1C(C)NC(=O)N(C)S(=O)(=O)c1ccc(C)cc1 (racemic)	104
